Laboratory results taken from article PMC8152814, “The modulatory role of sulfated and non-sulfated small molecule heparan sulfate-glycomimetics in endothelial dysfunction: absolute structural clarification, molecular docking and simulated dynamics, SAR analyses and ADMET studies” (RSC Medicinal Chemistry, 2021).

Tests used:
hERG = molecular target: T1, hERG (Homo sapiens, UniProt Q12809); test: hERG automated patch clamp (IonWorks, CHO-hERG cells); format: cell-based; details: CHO cells stably transfected with hERG, top concentration 25 µM
T1 construct: host or cells: CHO cells stably transfected with hERG
T1 sequence (Q12809 whole entry): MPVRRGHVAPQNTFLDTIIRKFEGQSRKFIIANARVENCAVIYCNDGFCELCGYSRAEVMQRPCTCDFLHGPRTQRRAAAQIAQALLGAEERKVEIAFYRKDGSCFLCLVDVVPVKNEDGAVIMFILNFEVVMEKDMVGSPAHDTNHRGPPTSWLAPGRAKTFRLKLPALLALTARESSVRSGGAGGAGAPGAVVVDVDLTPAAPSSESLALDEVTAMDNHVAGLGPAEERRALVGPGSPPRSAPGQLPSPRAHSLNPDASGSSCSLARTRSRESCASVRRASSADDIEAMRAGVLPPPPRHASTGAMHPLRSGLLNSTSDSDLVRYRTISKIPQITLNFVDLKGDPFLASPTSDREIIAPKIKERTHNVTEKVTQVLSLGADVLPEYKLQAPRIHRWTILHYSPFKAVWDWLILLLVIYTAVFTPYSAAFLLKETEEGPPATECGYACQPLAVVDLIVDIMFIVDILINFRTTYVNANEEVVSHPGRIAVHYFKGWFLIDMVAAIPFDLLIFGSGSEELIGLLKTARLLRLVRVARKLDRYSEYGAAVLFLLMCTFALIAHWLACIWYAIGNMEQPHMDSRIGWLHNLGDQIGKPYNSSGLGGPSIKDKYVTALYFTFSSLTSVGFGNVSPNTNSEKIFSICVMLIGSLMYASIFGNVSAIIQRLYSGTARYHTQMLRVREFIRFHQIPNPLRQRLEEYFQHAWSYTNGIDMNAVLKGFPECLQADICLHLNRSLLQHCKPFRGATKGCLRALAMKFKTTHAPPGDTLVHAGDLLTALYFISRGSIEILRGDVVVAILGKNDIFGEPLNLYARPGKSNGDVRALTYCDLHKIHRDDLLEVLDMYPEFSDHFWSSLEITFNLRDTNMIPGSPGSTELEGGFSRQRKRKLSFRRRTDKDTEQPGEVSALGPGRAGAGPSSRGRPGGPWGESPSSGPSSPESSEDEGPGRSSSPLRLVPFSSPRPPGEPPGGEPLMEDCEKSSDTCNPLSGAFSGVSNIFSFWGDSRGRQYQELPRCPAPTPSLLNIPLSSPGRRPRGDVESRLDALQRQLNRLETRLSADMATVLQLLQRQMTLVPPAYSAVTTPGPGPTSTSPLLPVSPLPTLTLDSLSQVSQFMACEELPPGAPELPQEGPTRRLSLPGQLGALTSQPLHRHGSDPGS
Description: Physicochemical and ADMET properties of representative glycomimetics. […] The final incubation volume is 50 µL. […] Two control compounds are included with each species. All incubations are performed singularly for each test compound. […] The control (minus NADPH) is incubated for 45 min. […] The cells are then positioned over a small hole at the bottom of each well by applying a vacuum beneath the plate to form an electrical seal. The vacuum is applied through a single compartment common to all wells which is filled with intracellular solution (buffered to pH 7.2 with HEPES). The resistance of each seal is measured via a common ground-electrode in the intracellular compartment and individual electrodes placed into each of the upper wells. Electrical access to the cell is then achieved by circulating a perforating agent, amphotericin B, underneath the PatchPlateTM. The pre-compound hERG current is then measured. An electrode is positioned in the extracellular compartment and a holding potential of -80 mV applied for 15 s. The hERG channels are then activated by applying a depolarising step to +40 mV for 5 s and then clamped at -50 mV for 4 s to elicit the hERG tail current, before returning to -80 mV for 0.3 s. […]

[1] = Caco-2 permeability (bi-directional); format: in vitro ADME; details: human, Caco-2; A2B, 10 µM, 120 min
Description: Physicochemical and ADMET properties of representative glycomimetics. […]
ymax = mean vehicle control response
Caco-2 Permeability (A-B or Bi-directional)
Caco-2 cells (ATCC, Virginia, USA) are used between passage numbers 40-60. Cells are seeded onto Millipore Multiscreen Transwell plates at 1 x 10^5 cells/cm2. The cells are cultured in DMEM and media is changed every two or three days. On day 20 the permeability study is performed. Cell culture and assay incubations are carried out at 37 °C in an atmosphere of 5 % CO2 with a relative humidity of 95%. On the day of the assay, the monolayers are prepared by rinsing both apical and basolateral surfaces twice with Hanks Balanced Salt Solution (HBSS) at the desired pH warmed to 37 °C. Cells are then incubated with HBSS at the desired pH in both apical and basolateral compartments for 40 min to stabilise physiological […]
The dosing solutions are prepared by diluting test compound with assay buffer to give a final test compound concentration of 10 µM (final DMSO concentration of 1 % v/v). The fluorescent integrity marker lucifer yellow is also included in the dosing solution. Analytical standards are prepared from test compound DMSO dilutions and transferred to buffer, maintaining a 1% v/v DMSO concentration. Typical assay buffer is composed of supplemented HBSS pH 7.4 but a range of other buffers and pH values can be used.
For assessment of A-B permeability, HBSS is removed from the apical compartment and replaced with test compound dosing solution. The apical compartment insert is then placed into a companion plate containing fresh buffer (containing 1 % v/v DMSO). For assessment of B-A permeability, HBSS is removed from the companion plate and replaced with test compound dosing solution. Fresh buffer (containing 1 % v/v DMSO) is added to the apical compartment insert, which is then placed into the companion plate.
At 120 min the apical compartment inserts and the companion plates are separated and apical and basolateral samples diluted for analysis. Test compound permeability is assessed in duplicate. Compounds of known permeability characteristics are run as controls on each assay plate. Test and control compounds are quantified by LC-MS/MS cassette analysis using an 8-point calibration with appropriate dilution of the samples. The starting concentration (C0) is determined from the dosing solution and the experimental recovery calculated from C0 and both apical and basolateral compartment concentrations.
The integrity of the monolayer throughout the experiment is checked by monitoring lucifer yellow permeation using fluorimetric analysis. Lucifer yellow permeation is high if monolayers have been damaged. If a lucifer yellow Papp value is above a pre-defined threshold in one individual test compound well, the compound may be re-tested or an n = 1 result is reported.
If lucifer yellow Papp values are above the threshold in both replicate wells for a test compound, the compound is re-tested. If this re-occurs upon repeat in both wells then toxicity or inherent fluorescence of the test compound is assumed.
The permeability coefficient (Papp) for each compound is calculated from the following […]
Where dQ/dt is the rate of permeation of the drug across the cells, C0 is the donor compartment concentration at time zero and A is the area of the cell monolayer. C0 is obtained from analysis […]
For bi-directional experiments, an efflux ratio (ER) is calculated from mean A-B and B-A data.
Three control compounds are screened alongside the test compounds, atenolol (human absorption 50%), propranolol (human absorption 90%) and talinolol (a substrate for […]

in vitro = details: mouse, microsomes, pH 7.4
Description: MLM assay (controls: diphenhydramine and diazepam). hERG assay (controls: quinidine and dimethylsulfoxide).
Microsomal Metabolic Stability
Pooled liver microsomes (final protein concentration 0.5 mg/mL), 0.1 M phosphate buffer pH
7.4 and test compound (final substrate concentration 3 µM; final DMSO concentration 0.25 %)
are pre-incubated at 37 °C prior to the addition of NADPH (final concentration 1 mM) to initiate
the reaction. The final incubation volume is 50 µL. A minus cofactor control incubation is
included for each compound tested where 0.1 M phosphate buffer pH 7.4 is added instead of
NADPH (minus NADPH). Two control compounds are included with each species. All incubations are performed singularly for each test compound. Each compound is incubated for 0, 5, 15, 30 and 45 min. The control (minus NADPH) is incubated for 45 min. The reactions
are stopped by transferring 20 µL of incubate to 60 µL methanol at the appropriate time points.
The termination plates are centrifuged at 2,500 rpm for 20 min at 4 °C to precipitate the protein.
Following protein precipitation, the sample supernatants are combined in cassettes of up to 4
compounds, internal standard is added and samples analysed using Cyprotex generic
LC-MS/MS conditions. From a plot of ln peak area ratio (compound peak area /internal
standard peak area) against time, the gradient of the line is determined. Subsequently, half-
life and intrinsic clearance are calculated using the equations below:
Elimination rate constant (k) = (- gradient)
Intrinsic clearance (CLint)(µL/min/mg protein) = where V = Incubation volume (µL)/Microsomal protein (mg)
Relevant control compounds are assessed, ensuring intrinsic clearance values fall within the
specified limits (if available).

## O=C([O-])c1cc(OC[C@H](COS(=O)(=O)[O-])OS(=O)(=O)[O-])ccc1OCC(COS(=O)(=O)[O-])OS(=O)(=O)[O-].[Na+].[Na+].[Na+].[Na+].[Na+] (mixture of isomers) [β-5, sodium 5-((R)-2,3-bis(sulfonatooxy)propoxy)-2-(2,3-bis(sulfonatooxy)propoxy)benzoate]
hERG
  IC50: > 25 µM

## COC(=O)c1cc(OC[C@H](COS(=O)(=O)[O-])OS(=O)(=O)[O-])ccc1OCCCCOS(=O)(=O)[O-].[Na+].[Na+].[Na+] [Compound R-10, sodium (R)-3-(3-(methoxycarbonyl)-4-(4-(sulfonatooxy)butoxy)phenoxy)propane-1,2-diyl bis(sulfate)]
hERG; human, pH 7.2
  IC50 at 300 s: > 25 µM
[1]
  Papp A→B at 2 h, 10 µM: 0.931 ×10⁻⁶ cm/s

## COC(=O)c1cc(OC[C@@H](COS(=O)(=O)[O-])OS(=O)(=O)[O-])ccc1OCCCCOS(=O)(=O)[O-].[Na+].[Na+].[Na+] [Compound S-10, sodium (S)-3-(3-(methoxycarbonyl)-4-(4-(sulfonatooxy)butoxy)phenoxy)propane-1,2-diyl bis(sulfate)]
In vitro
  half-life at 0.75 h, 3 µM: 2.89 days
